From patent US20260285853A1, “COMPOUNDS AND METHODS FOR MODULATING SPLICING” (REMIX THERAPEUTICS INC., priority 2023, published 2026)

Experiments:
Type in all cases: cell-based
[1] = test system: SH-SY5Y (human neuroblastoma) cells; test: Cell viability, Cell Titer Glo 2.0 assay; settings: read-out: Viability SHSY5Y.3 GI50
In short: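 Viability was read by CellTiter-Glo 2.0 luminescence after a 72-hour compound exposure at 37° C. under 5% CO2. Cells were in IMDM plus 10% FBS containing 0.1% DMSO, and medium-only wells gave the blank.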

[2] = test system: HTT mRNA; test: Splicing RT-qPCR assay, canonical (CJ) and alternative (AJ) junction mRNA, K562 cells; settings: Homo sapiens, K562.3 cells, 24 hours; for AC50: read-out: HTT AJ (AC50, increase in AJ mRNA); for IC50: read-out: HTT CJ (IC50, decrease in CJ mRNA)
In short: (§1)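 Readout is one-step RT-qPCR of canonical and alternative exon junctions, housekeeper-normalized (GAPDH or GUSB), ΔΔCt against DMSO giving RQ and percentage response over set ΔCt assay windows. Compounds dosed 24 h to K562 cells, 11 points, 3-fold, max 10 uM, DMSO ≤0.25%.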

[3] = test system: MYB mRNA; test: as above; settings: Homo sapiens, K562.3 cells, 24 hours; for AC50: read-out: MYB AJ (AC50, increase in AJ mRNA); for IC50: read-out: MYB CJ (IC50, decrease in CJ mRNA)
In short: as §1

[4] = test system: MYB mRNA; test: Splicing RT-qPCR assay (THP), Table 2A; settings: Table 2A (THP); for AC50: AJ mRNA increase, read-out: MYB AJ (increase in alternative junction mRNA, AC50); for IC50: CJ mRNA decrease, read-out: MYB CJ (decrease in canonical junction mRNA, IC50)
[5] = test system: HTT mRNA; test: Gene panel canonical junction qPCR assay, decrease in CJ mRNA, Table 3; settings: decrease in canonical junction (CJ) mRNA, gene panel qPCR, Table 3
In short: (§2)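 IC50 denotes the concentration giving 50% decrease in canonical-junction mRNA, fitted by 4-parameter logistic to percentage response derived from ΔΔCt versus housekeeping gene and DMSO control. Cells (A673 or K562) exposed 24 h to 11-point 3-fold serial dilutions from 10 uM top, DMSO ≤0.25%; junction-spanning primer/probe qPCR.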

[6] = test system: MYB mRNA; test: as above; settings: decrease in canonical junction (CJ) mRNA, gene panel qPCR, Table 3
In short: as §2

[7] = test system: SMN2 mRNA; test: as above; settings: decrease in canonical junction (CJ) mRNA, gene panel qPCR, Table 3
In short: as §2

SMILES: CCNC1CCN(c2cc(F)c(C(=O)Nc3cn4cc(C)nc4c(F)c3OC)c3[nH]ncc23)CC1 [Compound 173, 4-[4-(ethylamino)-1-piperidyl]-6-fluoro-N-(8-fluoro-7-methoxy-2-methyl-imidazo[1,2-a]pyridin-6-yl)-1H-indazole-7-carboxamide]
- GI50 [1]: < 0.1 µM
- AC50 [2]: 1 to 10 µM
- IC50 [2]: 1 to 10 µM
- AC50 [3]: < 0.1 µM
- IC50 [3]: < 0.1 µM
- AC50 [4]: < 0.1 µM
- IC50 [4]: < 0.1 µM
- IC50 [5]: 1 to 10 µM
- IC50 [6]: < 0.1 µM
- IC50 [7]: < 0.1 µM

SMILES: CCNC1CCN(c2cc(F)c(C(=O)Nc3cc(F)c4nc(C)cn4c3)c3[nH]ncc23)CC1 [Compound 174, 4-[4-(ethylamino)-1-piperidyl]-6-fluoro-N-(8-fluoro-2-methyl-imidazo-[1,2-a]pyridin-6-yl)-1H-indazole-7-carboxamide]
- GI50 [1]: 0.1 to 1 µM
- AC50 [2]: 1 to 10 µM
- IC50 [2]: 1 to 10 µM
- AC50 [3]: 0.1 to 1 µM
- IC50 [3]: 0.1 to 1 µM
- AC50 [4]: < 0.1 µM
- IC50 [4]: 0.1 to 1 µM
- IC50 [5]: 1 to 10 µM
- IC50 [6]: 0.1 to 1 µM
- IC50 [7]: < 0.1 µM

SMILES: COc1c(NC(=O)c2ccc(N3CCNCC3)c3cc[nH]c23)cn2cc(C)nc2c1F [Compound 212, N-(8-fluoro-7-methoxy-2-methyl-imidazo-[1,2-a]pyridin-6-yl)-4-piperazin-1-yl-1H-indole-7-carboxamide]
- GI50 [1]: 1 to 10 µM
- AC50 [2]: > 10 µM
- IC50 [2]: > 10 µM
- AC50 [3]: > 10 µM
- IC50 [3]: 1 to 10 µM
- AC50 [4]: > 10 µM
- IC50 [4]: > 10 µM
- IC50 [5]: > 10 µM
- IC50 [6]: 1 to 10 µM
- IC50 [7]: 1 to 10 µM

SMILES: Cc1cn2cc(NC(=O)c3ccc(N4CCNCC4)c4cc[nH]c34)cc(F)c2n1 [Compound 213, N-(8-fluoro-2-methyl-imidazo[1,2-a]-pyridin-6-yl)-4-piperazin-1-yl-1H-indole-7-carboxamide]
- GI50 [1]: 1 to 10 µM
- AC50 [2]: > 10 µM
- IC50 [2]: 1 to 10 µM
- AC50 [3]: > 10 µM
- IC50 [3]: > 10 µM
- AC50 [4]: > 10 µM
- IC50 [4]: 1 to 10 µM
- IC50 [5]: 1 to 10 µM
- IC50 [6]: > 10 µM
- IC50 [7]: > 10 µM

SMILES: Cc1cn2cc(NC(=O)c3ccc(N4CCNCC4)c4nonc34)cc(F)c2n1 [Compound 263, N-(8-fluoro-2-methyl-imidazo[1,2-a]pyridin-6-yl)-4-piperazin-1-yl-2,1,3-benzoxadiazole-7-carboxamide]
- GI50 [1]: 1 to 10 µM
- AC50 [2]: 1 to 10 µM
- IC50 [2]: 0.1 to 1 µM
- AC50 [3]: 0.1 to 1 µM
- IC50 [3]: 0.1 to 1 µM
- AC50 [4]: 0.1 to 1 µM
- IC50 [4]: 0.1 to 1 µM
- IC50 [5]: 0.1 to 1 µM
- IC50 [6]: 0.1 to 1 µM
- IC50 [7]: < 0.1 µM

SMILES: Cc1cn2cc(C(=O)Nc3c(F)cc(N4CCNCC4)c4cn[nH]c34)cc(F)c2n1 [Compound 267]
- GI50 [1]: > 10 µM
- AC50 [2]: > 10 µM
- IC50 [2]: > 10 µM
- AC50 [3]: > 10 µM
- IC50 [3]: > 10 µM
- AC50 [4]: > 10 µM
- IC50 [4]: > 10 µM
- IC50 [5]: > 10 µM
- IC50 [6]: > 10 µM
- IC50 [7]: > 10 µM

SMILES: COC1CC(N[C@H]2CCN(c3ccc(C(=O)Nc4cc(F)c5nc(C)cn5c4)c4nn(C)cc34)C2)C1 (stereo partly drawn) [Compound 268, N-(8-fluoro-2-methyl-imidazo[1,2-a]pyridin-6-yl)-4-[(3S)-3-[(3-methoxy-cyclobutyl)amino]pyrrolidin-1-yl]-2-methyl-indazole-7-carboxamide]
- GI50 [1]: 0.1 to 1 µM
- AC50 [2]: 1 to 10 µM
- IC50 [2]: 0.1 to 1 µM
- AC50 [3]: 0.1 to 1 µM
- IC50 [3]: < 0.1 µM
- AC50 [4]: < 0.1 µM
- IC50 [4]: < 0.1 µM
- IC50 [5]: 0.1 to 1 µM
- IC50 [6]: < 0.1 µM
- IC50 [7]: < 0.1 µM
